From PubChem BioAssay AID179 (DTP/NCI, 2004)
Values joined by “and” are separate entries in the source; they are usually repeats but may differ in a detail not shown here. Equal entries are not always repeated. Active and inactive are the calls of the source.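 The calls were made as follows: active = compounds giving half or more protection of infected cells from virus-caused growth loss, again on retest; inactive = the rest.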

Tested on: CEM cells HIV-1 protection, formazan growth assay
Assay: NCI AIDS Antiviral Assay
Conditions: for IC50: measured here: growth of uninfected CEM cells
How it was run: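 Category rules: moderately active means at least 50% protection on retest, and confirmed active means 100% protection reproducibly. The underlying data came from a formazan growth assay in HIV-1-infected CEM cells.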

C=C(C)C(=O)OC1CC2=CC(CC3(C)OC3C3OC(=O)C(=C)C13)OC2=O (stereo not drawn)
EC50: > 200 µM | IC50: 2.4 µM

CCOC1=C(c2ccccc2)Oc2cccnc2-n2cccc21
EC50: > 200 µM | IC50: 138 µM

COC[C@]12CN(C=O)[C@H]3C4[C@H](OC)[C@H]1C3([C@@H](OC)C[C@H]2O)[C@@H]1C[C@@]2(O)[C@H](OC(=O)c3ccccc3)[C@@H]1[C@]4(OC(C)=O)[C@@H](O)[C@@H]2OC
EC50: > 200 µM | IC50: > 200 µM

COc1cc(C)cc2c(-c3ccc(O)c4c(OC)cc(C)cc34)ccc(O)c12
EC50: > 100 µM | IC50: 2.95 µM

C=CCCON(C(=O)OC(C)(C)C)C(C)(C)C
EC50: > 200 µM | IC50: > 200 µM

CC1=CC(C)C(=O)N(CCN2CCOCC2)C(C)=C1 (stereo not drawn)
EC50: > 955 µM | IC50: > 955 µM

COC(=O)c1ccc(Oc2nc3ccc(C(F)(F)F)cc3nc2-c2ccccc2)cc1
EC50: > 200 µM | IC50: > 200 µM

O=C(O)CP(=S)(S)c1ccccc1 (stereo not drawn)
EC50: > 5620 µM | IC50: > 5620 µM

COc1cc2c(cc1OC)/C(=C/c1ccc(N(C)C)cc1)C=C2
EC50: > 17 µM | IC50: > 17 µM

CC(C)CCCC(C)[C@H]1CCC2[C@@H]3CCC4Nc5c(cnn5-c5ccccc5)C[C@]4(C)C3CC[C@@]21C (stereo partly drawn)
outcome: inactive

NCC[PH+](c1ccccc1)c1ccccc1.NCC[PH+](c1ccccc1)c1ccccc1.[Cl-].[Pt+4]
EC50: > 200 µM | IC50: 72.4 µM

c1ccc2c(c1)Sc1ccccc1N2CCCN1c2ccccc2Sc2ccccc21
EC50: > 50.1 µM | IC50: > 50.1 µM

N#Cc1ccc(C2ON=C(c3ccccc3)N2C23CC4CC(CC(C4)C2)C3)cc1 (stereo not drawn)
EC50: > 200 µM | IC50: 151 µM

COc1ccc2oc(=O)c3c(c2c1C)OC(C)(C)C=C3
EC50: > 200 µM | IC50: > 100 µM

CCCCCCCCCCCCCCCCNC(=O)/C(=C\c1ccccc1O)NC(=O)c1ccccc1
EC50: > 200 µM | IC50: > 200 µM

O=S(=O)(Cc1nc2ccccc2s1)c1nc2ccccc2s1
EC50: > 200 µM | IC50: 4.79 µM

CCOC(=O)NC(NC(C)CC)(C(F)(F)F)C(F)(F)F (stereo not drawn)
EC50: > 200 µM | IC50: > 200 µM

COC(=O)/C=C1\CC(C)C2=C(N1)SCC2=O (stereo not drawn)
EC50: > 355 µM | IC50: 138 µM

CCOC(=O)C(C)(C)C(OP(OCC)OCC)=C(C)C
EC50: > 589 µM | IC50: > 589 µM

C=C=C(C)CN(CC)CC
EC50: > 1580 µM | IC50: > 1580 µM

O=c1c2ccccc2oc2cc(C(O)c3ccccc3)ccc12 (stereo not drawn)
EC50: > 200 µM | IC50: 97.7 µM

O=C(Nc1ccccc1)OCc1nc2c([nH]1)C(=O)C=CC2=O
outcome: inactive

N#CC1=C(N)N(c2ccccc2)C(=S)N2CCCCCCCC12 (stereo not drawn)
EC50: > 200 µM | IC50: 186 µM

CC12CC3CC(C)(C1)CC(N=[N+]=[N-])(C3)C2
EC50: > 91.2 µM | IC50: > 91.2 µM

Cc1nc2nc[nH]n2c1N=Nc1ccccc1
EC50: > 200 µM | IC50: > 200 µM

COc1ccc2occ(CCC(=O)O)c2c1
outcome: inactive

CCOP(=O)(OCC)/C(=C/c1ccccc1)CC(C)=O
EC50: > 200 µM | IC50: 148 µM

COc1cc(C)c(/C=C/C(=O)N2C(=O)OC[C@@H]2c2ccccc2)c(C)c1
EC50: > 200 µM | IC50: 26.9 µM

N=C(OC1CCCCC1)N1CCCC1
EC50: > 200 µM | IC50: > 200 µM

CC(C)(C)C(=O)/C=C/c1ccccc1F
EC50: > 49 µM | IC50: > 49 µM

CC(=O)N1C(c2[nH]c3ccccc3c2Cc2ccccc2)CCN1c1ccccc1 (stereo not drawn)
EC50: > 200 µM | IC50: 102 µM

O=C(O)c1ccccc1-c1c2ccc(=O)cc-2oc2cc(O)ccc12
EC50: > 316 µM | IC50: 58.9 µM

CC1CC/C(=[N+](/C)Nc2ccc([N+](=O)[O-])cc2[N+](=O)[O-])C2CCC(C(C)C(=O)O)C=C12 (stereo not drawn)
outcome: inactive

CC(=O)C1=CCC2c3[nH]c4ccccc4c3CCN2C1 (stereo not drawn)
EC50: > 70.8 µM | IC50: > 70.8 µM

CN1Cc2c(N)cccc2C(c2ccccc2)C1 (stereo not drawn)
outcome: inactive

CCN(CC)C(c1ccc(N(C)C)cc1)C(c1ccc(N(C)C)cc1)N(CC)CC (stereo not drawn)
EC50: > 158 µM | IC50: 42.7 µM

COc1ccc(C2Nc3cc(Cl)ccc3NC3=C2C(=O)CC(C)(C)C3)cc1 (stereo not drawn)
EC50: > 200 µM | IC50: 83.2 µM

O=C(c1ccccc1)c1cccc(C(=O)c2ccccc2)c1
EC50: > 25.1 µM | IC50: > 25.1 µM

CSc1sc(C)cc1-c1nsc(=O)o1
EC50: > 200 µM | IC50: > 200 µM

COc1cccc(/C=N/[N-]C(N)=O)c1[O-].[Ni+2].[OH3+].c1cnc2c(c1)ccc1cccnc12
outcome: inactive

CC(=O)NC1=NC(=O)/C(=C\c2cccc(Cl)c2Cl)N1C
EC50: > 200 µM | IC50: 81.3 µM

O=C(Nc1ccccc1C(=O)O)C(=O)C(C(=O)c1ccccc1-c1ccccc1)C1OC(=O)c2ccccc21 (stereo not drawn)
EC50: > 50.1 µM | IC50: 25.1 µM

CC(C)(C)[Si](C)(C)OC1C(/C=N\O)OC(n2ccc(=O)[nH]c2=O)C1O[Si](C)(C)C(C)(C)C (stereo not drawn)
EC50: > 200 µM | IC50: 3.55 µM

Cc1oc2cc(O)cc(O)c2c(=O)c1C
EC50: > 200 µM | IC50: 155 µM

NC(=S)N/N=C/C(F)(F)F
EC50: > 1450 µM | IC50: 79.4 µM

COc1cc(C(=O)NC(CCN)(c2ccccc2)c2ccccc2)cc(OC)c1OC
EC50: > 200 µM | IC50: 67.6 µM

COc1ccc(/C=C(\C#N)c2ccc([N+](=O)[O-])cc2)cc1OC
EC50: 102 µM | IC50: 759 µM

COc1ccc(C(O)c2nccn2C)c(OC)c1 (stereo not drawn)
EC50: > 200 µM | IC50: > 200 µM

CCCCCCCCCCCCSSSCCCCCCCCCCCC
EC50: > 200 µM | IC50: > 200 µM

COC(=O)Cc1ccc2c(cnn2-c2ccccc2)c1OC
EC50: > 200 µM | IC50: 89.1 µM

N#CC1=C(Cl)NC(Cl)=C(C#N)C1c1c(Cl)cccc1Cl
EC50: 18.2 µM | IC50: > 100 µM

Oc1cc2cccc[n+]2c2cccc(Cl)c12
EC50: > 200 µM | IC50: 34.7 µM

Cc1cc2c(nn1)-c1ccccc1C2=O
EC50: > 200 µM | IC50: 105 µM

CC(C)[Si]1(C(C)C)OCC2OC(n3cnc4c(N)ncnc43)C(N)C2O[Si](C(C)C)(C(C)C)O1 (stereo not drawn)
EC50: > 200 µM | IC50: 8.51 µM

CNCCOC(c1ccccc1)c1ccccc1C (stereo not drawn)
EC50: > 200 µM | IC50: 93.3 µM and 25.1 µM

Cc1ccc(NC(=O)CCc2cc(C(C)(C)C)nc(NC#N)n2)cc1C
outcome: inactive

Cc1cc(Cl)ccc1N1C(=O)C(=O)C(c2nc3ccccc3o2)C(=O)C1=O
outcome: inactive

C=C[C@@H]1OC(=O)O[C@H]1CO
EC50: > 200 µM | IC50: > 200 µM

CCOC(OC1=C(C#N)CCCC1)C(C)[Se]c1ccccc1 (stereo not drawn)
EC50: > 20 µM | IC50: > 20 µM

COc1c(Cl)nc2ccccc2c1N=[N+]=[N-]
EC50: > 200 µM | IC50: 135 µM

Cc1ccc(S(=O)(=O)N2CCNCCN(S(=O)(=O)c3ccc(C)cc3)CCN(S(=O)(=O)c3ccc(C)cc3)CC2)cc1
EC50: > 200 µM | IC50: > 200 µM

S=C(N/N=C/c1ccccn1)N1CCCCC1
EC50: > 0.2 µM | IC50: 0.011 µM

CCN(CC)CCNc1ccc(CO)c2oc3ccc(OS(=O)(=O)c4ccc(C)cc4)cc3c(=O)c12
EC50: > 51.3 µM | IC50: 8.91 µM

CC(=O)OCC1OC(n2c(=S)n(-c3ccccc3)c(=O)c3cc(Br)ccc32)C(OC(C)=O)C(OC(C)=O)C1OC(C)=O (stereo not drawn)
EC50: > 10.7 µM | IC50: > 10.7 µM

C#CC(C)(C)Oc1ccc2c(=O)c(-c3ccccc3)coc2c1
EC50: > 200 µM

COC(=O)Nc1cn2cc(C(=O)c3cccs3)ccc2n1
EC50: > 9.12 µM | IC50: 0.0331 µM
